Results on seven compounds are retold here after ChEMBL document CHEMBL1139888, “Fungicidal activities of dihydroferulic acid alkyl ester analogues” (2007).

Each structure is given as a SMILES string. ≈ marks a conversion by molar mass, not a printed value.

Holding throughout (type): functional
In experiment [1] the test system is Saccharomyces cerevisiae. Put plainly: Growth inhibition of wild type Saccharomyces cerevisiae BY47411 at 1.6 mM after 48 hrs relative to control.
The subject of experiment [2] is Aspergillus flavus. Put plainly: Growth inhibition of wild type Aspergillus flavus NRRL3357 at 3.2 mM after 4 days. The conditions noted are these: NRRL3357, 96 h.
In experiment [3] the test system is Saccharomyces cerevisiae. Nature of the experiment: Antifungal activity against wild type Saccharomyces cerevisiae BY47411 assessed as cell number at 1.6 mM after 48 hrs.
The subject of experiment [4] is Saccharomyces cerevisiae. Put plainly: Antifungal activity against Saccharomyces cerevisiae bck1delta deletion mutant assessed as cell number at 1.6 mM after 48 hrs.
Experiment [5] relates to Aspergillus flavus. Nature of the experiment: Fungicidal activity against wild type Aspergillus flavus NRRL3357 assessed as radial growth on potato dextrose agar plate at 0.1 mM after 4 days.
Experiment [6] concerns Saccharomyces cerevisiae. Put plainly: Antifungal activity against wild type Saccharomyces cerevisiae BY47411 after 24 hrs.
The subject of experiment [7] is Aspergillus flavus. Nature of the experiment: Growth inhibition of wild type Aspergillus flavus NRRL3357 at 0.2 mM after 4 days. The conditions noted are these: NRRL3357, 96 h.
The subject of experiment [8] is Saccharomyces cerevisiae. Nature of the experiment: Growth inhibition of wild type Saccharomyces cerevisiae BY47411 at 5 mM after 48 hrs relative to control.
For experiment [9], the system named is Aspergillus fumigatus. Nature of the experiment: Fungicidal activity against wild type Aspergillus fumigatus AF293 assessed as radial growth on potato dextrose agar plate at 0.8 mM after 4 days.
Experiment [10] has as its system Aspergillus flavus. Nature of the experiment: Fungicidal activity against wild type Aspergillus flavus NRRL3357 assessed as radial growth on potato dextrose agar plate at 6.4 mM after 4 days.
In experiment [11] the test system is Aspergillus flavus. Nature of the experiment: Growth inhibition of wild type Aspergillus flavus NRRL3357 at 6.4 mM after 4 days. Particulars: NRRL3357, 96 h.
In experiment [12] the test system is Saccharomyces cerevisiae. Put plainly: Antifungal activity against wild type Saccharomyces cerevisiae BY47411 assessed as cell number at 3.2 mM after 48 hrs.
In experiment [13] the test system is Aspergillus flavus. Nature of the experiment: Growth inhibition of wild type Aspergillus flavus NRRL3357 at 0.4 mM after 4 days. The conditions noted are these: NRRL3357, 96 h.
Experiment [14] deals with Aspergillus flavus. Put plainly: Antifungal activity against Aspergillus flavus NRRL3357.
For experiment [15], the system named is Aspergillus fumigatus. Nature of the experiment: Growth inhibition of wild type Aspergillus fumigatus AF293 at 3.2 mM after 4 days. The conditions noted are these: AF293, 96 h.
Experiment [16] relates to Aspergillus fumigatus. Put plainly: Growth inhibition of wild type Aspergillus fumigatus AF293 at 6.4 mM after 4 days. The conditions noted are these: AF293, 96 h.
Experiment [17] relates to Saccharomyces cerevisiae. Nature of the experiment: (§1) Growth inhibition of Saccharomyces cerevisiae bck1delta deletion mutant at 3.2 mM relative to control after 48 hrs.
The subject of experiment [18] is Aspergillus fumigatus. Put plainly: Growth inhibition of wild type Aspergillus fumigatus AF293 at 0.4 mM after 4 days. Particulars: AF293, 96 h.
The test system of experiment [19] is Saccharomyces cerevisiae. Put plainly: Growth inhibition of wild type Saccharomyces cerevisiae BY47411 at 3.2 mM after 48 hrs relative to control.
The subject of experiment [20] is Aspergillus fumigatus. Put plainly: Fungicidal activity against wild type Aspergillus fumigatus AF293 assessed as radial growth on potato dextrose agar plate at 6.4 mM after 4 days.
Experiment [21] concerns Aspergillus fumigatus. Put plainly: Fungicidal activity against wild type Aspergillus fumigatus AF293 assessed as radial growth on potato dextrose agar plate at 3.2 mM after 4 days.
The test system of experiment [22] is Aspergillus flavus. Put plainly: Growth inhibition of wild type Aspergillus flavus NRRL3357 at 1.6 mM after 4 days. Particulars: NRRL3357, 96 h.
The test system of experiment [23] is Aspergillus fumigatus. Put plainly: Growth inhibition of wild type Aspergillus fumigatus AF293 at 1.6 mM after 4 days. Particulars: AF293, 96 h.
For experiment [24], the system named is Saccharomyces cerevisiae. Nature of the experiment: Growth inhibition of wild type Saccharomyces cerevisiae BY47411 at 0.8 mM after 48 hrs relative to control.
Experiment [25] concerns Saccharomyces cerevisiae. Nature of the experiment: Antifungal activity against wild type Saccharomyces cerevisiae BY47411 assessed as cell number at 0.8 mM after 48 hrs.
For experiment [26], the system named is Aspergillus fumigatus. Put plainly: Growth inhibition of wild type Aspergillus fumigatus AF293 at 0.1 mM after 4 days. The conditions noted are these: AF293, 96 h.
For experiment [27], the system named is Aspergillus fumigatus. Put plainly: Antifungal activity against Aspergillus fumigatus AF293.
For experiment [28], the system named is Aspergillus flavus. Nature of the experiment: Fungicidal activity against wild type Aspergillus flavus NRRL3357 assessed as radial growth on potato dextrose agar plate at 0.2 mM after 4 days.
In experiment [29] the test system is Saccharomyces cerevisiae. Nature of the experiment: Antifungal activity against Saccharomyces cerevisiae bck1delta deletion mutant assessed as cell number at 3.2 mM after 48 hrs.
For experiment [30], the system named is Aspergillus flavus. Put plainly: Growth inhibition of wild type Aspergillus flavus NRRL3357 at 0.8 mM after 4 days. The conditions noted are these: NRRL3357, 96 h.
Experiment [31] relates to Aspergillus fumigatus. Nature of the experiment: Growth inhibition of wild type Aspergillus fumigatus AF293 at 0.8 mM after 4 days. The conditions noted are these: AF293, 96 h.
Experiment [32] relates to Saccharomyces cerevisiae. Nature of the experiment: Antifungal activity against wild type Saccharomyces cerevisiae BY47411 assessed as cell number at 6.4 mM after 48 hrs.
In experiment [33] the test system is Aspergillus fumigatus. Nature of the experiment: Fungicidal activity against wild type Aspergillus fumigatus AF293 assessed as radial growth on potato dextrose agar plate at 0.4 mM after 4 days.
In experiment [34] the test system is Aspergillus flavus. Put plainly: Growth inhibition of wild type Aspergillus flavus NRRL3357 at 0.1 mM after 4 days. The conditions noted are these: NRRL3357, 96 h.
Experiment [35] relates to Aspergillus flavus. Nature of the experiment: Fungicidal activity against wild type Aspergillus flavus NRRL3357 assessed as radial growth on potato dextrose agar plate at 0.8 mM after 4 days.
Experiment [36] relates to Aspergillus flavus. Put plainly: Fungicidal activity against wild type Aspergillus flavus NRRL3357 assessed as radial growth on potato dextrose agar plate at 0.4 mM after 4 days.
Experiment [37] deals with Aspergillus fumigatus. Nature of the experiment: Growth inhibition of wild type Aspergillus fumigatus AF293 at 0.2 mM after 4 days. Particulars: AF293, 96 h.
For experiment [38], the system named is Aspergillus fumigatus. Put plainly: Fungicidal activity against wild type Aspergillus fumigatus AF293 assessed as radial growth on potato dextrose agar plate at 1.6 mM after 4 days.
For experiment [39], the system named is Aspergillus flavus. Nature of the experiment: Fungicidal activity against wild type Aspergillus flavus NRRL3357 assessed as radial growth on potato dextrose agar plate at 1.6 mM after 4 days.
Experiment [40] deals with Aspergillus fumigatus. Put plainly: Fungicidal activity against wild type Aspergillus fumigatus AF293 assessed as radial growth on potato dextrose agar plate at 0.1 mM after 4 days.
Experiment [41] relates to Saccharomyces cerevisiae. Described as §1. The source holds these as a separate data set.
The subject of experiment [42] is Aspergillus fumigatus. Put plainly: Fungicidal activity against wild type Aspergillus fumigatus AF293 assessed as radial growth on potato dextrose agar plate at 0.2 mM after 4 days.
For experiment [43], the system named is Aspergillus flavus. Put plainly: Fungicidal activity against wild type Aspergillus flavus NRRL3357 assessed as radial growth on potato dextrose agar plate at 3.2 mM after 4 days.
In experiment [44] the test system is Saccharomyces cerevisiae. Nature of the experiment: Growth inhibition of wild type Saccharomyces cerevisiae BY47411 at 6.4 mM after 48 hrs relative to control.

As a reminder, the inhibition is the relative decrease from the control value, in per cent. The low end stands for a response near the control, the high end for a response far below the control. One may read the MIC50 as the lowest concentration that inhibits either 50% of growth or 50% of the strains tested, depending on the study. The low end stands for greater potency, the high end for weaker potency. As usually defined, the MIC90 is an inhibitory concentration at the 90% level, which refers to growth in some studies and to a panel of isolates in others. Regarding `CCCOC(=O)CCc1ccc(O)c(OC)c1` [DIHYDROFERULIC ACID PROPYL ESTER], the inhibition at 1600 µM in experiment [1] amounted to 57.4%; in [22], 28.2%; in experiment [23], 42.6%. For the same compound, the inhibition at 3200 µM in experiment [2] was 53.2%; in experiment [15], 78.8%; in experiment [17], 76.8%; in [19], 99.3%; in experiment [41] it was 93%. Besides, the Activity in experiment [3] was 1.89; in [4], 1.07; in experiment [5], 3.2 cm; in [9] it was 3.9 cm; in [10] it was 0 cm; in [12] it was 0.03. Besides, the Activity in [20] is on record as 0 cm; in experiment [21], 1 cm; in experiment [25], 2.99; in experiment [28], 3.1 cm; in experiment [29], 0.32; in experiment [32] it was 0. Further, the Activity is 4.2 cm in experiment [33]; 2.8 cm in experiment [35]; 3 cm in [36]; 2.7 cm in experiment [38]; 2.3 cm in experiment [39]; 4.7 cm in [40]. The values for the Activity in [42] and in [43] were 4.6 cm and 1.5 cm, respectively. Moreover, the results for the MIC50 in experiment [6], in experiment [14] and in experiment [27] were 1.5 mM (≈ 357 µg/mL), 2900 µM (≈ 691 µg/mL) and 2100 µM (≈ 500 µg/mL), respectively. The compound further registered an MIC90 in experiment [6] of 4.5 mM (≈ 1070 µg/mL). Moreover, the inhibition at 200 µM is 3.2% in [7] and 2.2% in [37]. Further, testing at 5000 µM in experiment [8] gave an inhibition of 99.4%. Besides, the inhibition at 6400 µM in experiment [11], in experiment [16] and in experiment [44] was 100% each time. Further, the inhibition at 400 µM in experiment [13] turned out to be 6.3%; in [18] it was 10.7%. The inhibition at 800 µM stood at 32.7% in experiment [24], 12.5% in experiment [30] and 17.1% in experiment [31]. Also, the inhibition at 100 µM in [26] and in experiment [34] was 0% each time.
In experiment [6], `CCOC(=O)CCc1ccc(O)c(OC)c1` [DIHYDROFERULIC ACID ETHYL ESTER] yielded an MIC50 of 4 mM (≈ 897 µg/mL) and an MIC90 of more than 6.4 mM. The same compound showed an inhibition at 5000 µM in experiment [8] of 98.7%. In experiment [44], this compound had an inhibition at 6400 µM of 87%.
As for `COc1cc(CCC(=O)O)ccc1O` [DIHYDROFERULIC ACID], the MIC50 in [6] was 6.4 mM (≈ 1260 µg/mL). Also, the inhibition at 5000 µM in [8] was 6.4%.
In the case of `CCCCCCCCOC(=O)CCc1ccc(O)c(OC)c1` [DIHYDROFERULIC ACID OCTYL ESTER], testing at 5000 µM in experiment [8] gave an inhibition of 6.2%.
For `CCCCCCCCCCOC(=O)CCc1ccc(O)c(OC)c1` [DIHYDROFERULIC ACID DECYL ESTER], the inhibition at 5000 µM in experiment [8] amounted to 2.8%.
On to `COC(=O)CCc1ccc(O)c(OC)c1` [DIHYDROFERULIC ACID METHYL ESTER], for which, in experiment [6], the MIC50 was 2.1 mM (≈ 441 µg/mL) and the MIC90 amounted to 5.6 mM (≈ 1180 µg/mL). Besides, at 5000 µM the inhibition in experiment [8] was 100%.
Turning to `CCCCCCOC(=O)CCc1ccc(O)c(OC)c1` [HEXYLHYDROFERULATE], in [1], testing at 1600 µM gave an inhibition of 38.3%. The Activity in [3] is on record as 2.74; in experiment [12] it was 1; in experiment [25] it was 3.61; in experiment [32], 0.28. In addition, the inhibition at 5000 µM in experiment [8] worked out at 18.8%. Testing at 3200 µM in [19] gave an inhibition of 77.5%. 800 µM produced 18.7% inhibition in [24]. Also, the inhibition at 6400 µM in [44] was found to be 93.7%.
